From PubChem BioAssay AID1959 (Broad Institute, 2009)
Calls of active or inactive are those of the source.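 How the source made its calls: active means growth-inhibition EC50 no more than tenfold above the top tested dose; inconclusive means flat fit between 30% and 70% inhibition, or unreliable fit; inactive means EC50 more than tenfold above the top tested dose.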

tested on: E. coli NEB5alpha growth, BacTiter-Glo luminescence, 4 h; experiment: Escherichia coli growth inhibition, dose response, counter-screen for MEX-5/POS-1 RNA-binding inhibitor project, luminescence, NEB5alpha (AID 1959);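 further: pUC19-transformed ampicillin-resistant cells grown in LB with ampicillin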

| Compound | EC50 |
| --- | --- |
| Cc1ccccc1Nc1nc(Cl)c(C=O)s1 | > 11 µM (inactive) |
| CCCCN1C(=O)/C(=C2/Sc3ccc(OC)cc3N2CC)SC1=S | > 11 µM (inactive) |
| Cc1ccc(/C=C2\Oc3c(ccc(O)c3CN3CCN(CCO)CC3)C2=O)cc1 | > 11 µM (inactive) |
| COc1cc(C2NC(=S)NC(C)=C2C(=O)OC(C)C)ccc1OC(C)C (stereo not drawn) | > 11 µM (inactive) |
| CCN(CC)C(=O)c1cc2c(=O)c3cc(Cl)ccc3oc2nc1C | > 11 µM (inactive) |
| O=C1C2CC=C(Cl)CC2C(=O)N1CC1Cc2ccccc2CO1 (stereo not drawn) | > 11 µM (inactive) |
| Oc1c(Cl)cc(Cl)c(Cl)c1Cc1c(O)c(Cl)cc(Cl)c1Cl | > 11 µM (inactive) |
| CN=C1S/C(=C\c2ccc(O)c(OC)c2)C(=O)N1C | > 11 µM (inactive) |
| CCOC(=O)c1c(NC(=O)Nc2ccc(F)cc2)sc2c1CCN(C)C2 | > 11 µM (inactive) |
| CN1C(=O)c2cccc3c(N)ccc(c23)C1=O | > 11 µM (inactive) |
| Brc1ccc(C2=CC(c3ccco3)n3ncnc3N2)cc1 (stereo not drawn) | > 11 µM (inactive) |
| Cn1cc(C2=C(c3ccc(Cl)cc3Cl)C(=O)NC2=O)c2ccccc21 | > 11 µM (inactive) |
| COc1ccc(S(=O)(=O)Nc2ccc(O)c(Sc3ncn[nH]3)c2)cc1 | > 11 µM (inactive) |
| Cc1cccc(S(=O)(=O)C(C#N)c2nc3ccccc3nc2N2CCOCC2)c1 (stereo not drawn) | > 11 µM (inactive) |
| CN(C)c1ccc(/C=C2\N=C(C(C)(C)C)OC2=O)cc1 | > 11 µM (inactive) |
| CCCCn1c(O)c(/C=N/NC(=O)c2ccncc2)c(=O)[nH]c1=O | > 11 µM (inactive) |
| Cc1ccccc1N=C1NC(=O)/C(=C/c2cccn2-c2cccc(C(=O)O)c2)S1 | > 11 µM (inactive) |
| CN1/C(=C/C=C(C#N)C#N)C(C)(C)c2ccccc21 | > 11 µM (inactive) |
| COc1ccccc1N1C(=O)NC(=O)/C(=C/c2ccc([N+](=O)[O-])s2)C1=O | > 11 µM (inactive) |
| COc1ccc(C2=CC3=CC(=O)C(C)(O)C(=O)C3=CO2)cc1 (stereo not drawn) | > 11 µM (inactive) |
| CC1=CC(=C(C#N)c2nc3ccccc3s2)C=C(C)N1CC1CCCO1 (stereo not drawn) | > 11 µM (inactive) |
| Cc1ccc2cc(/C=C3\N=C(c4ccccc4)OC3=O)c(N3CCOCC3)nc2c1 | > 11 µM (inactive) |
| CCN(CC)c1ccc(C=N/C(C#N)=C(\N)C#N)cc1 | > 11 µM (inactive) |
| Cc1cc(C)nc(NN2C(=O)C=CC2=O)n1 | > 11 µM (inactive) |
| CCOC(=O)c1cc(-c2ccccc2)sc1NC(=S)Nc1cc(C)ccn1 | > 11 µM (inactive) |

| Compound | EC50 |
| --- | --- |
| Cc1noc(/C=C/N(C)C)c1S(=O)(=O)N1CCC(C(=O)O)CC1 | > 11 µM (inactive) |
| CCN(CC)CCN1C(=O)c2cccc3cc(N)cc(c23)C1=O | > 11 µM (inactive) |
| Cc1nnc(N2C(=O)C(O)=C(C(=O)c3ccco3)C2c2ccc(F)cc2)s1 (stereo not drawn) | > 11 µM (inactive) |
| CCOC(=O)C1=C2NC(=O)c3ccccc3N2C(=O)C1 | > 11 µM (inactive) |
| CCN(CC)c1ccc(/C=C2\C(=O)NC(=S)N(c3ccc(OC)cc3OC)C2=O)o1 | > 11 µM (inactive) |
| OCCCNc1ncnc2sc3c(c12)CCN(Cc1ccccc1)C3 | > 11 µM (inactive) |
| N#CCC(N)=C(C#N)C#N | > 11 µM (inactive) |
| O=C(/C=C/c1ccco1)NC(=S)NNC(=O)c1ccco1 | > 11 µM (inactive) |
| [O-]/C(=C(\C(=S)NCc1ccco1)[n+]1ccccc1)c1ccccc1Br | > 11 µM (inactive) |
| CC(C)OC(=O)CC(=O)c1sc2nc3c(cc2c1N)CN(C)CC3 | > 11 µM (inactive) |
| O=C(CN1C(=O)/C(=C\C=C\c2ccccc2)SC1=S)Nc1ccc(F)cc1 | > 11 µM (inactive) |
| COc1ccc(-c2cc3ccc(OCC(N)=O)cc3oc2=O)cc1OC | > 11 µM (inactive) |
| COc1ccc(NC(=O)Nc2cc(C)cc(C)c2)cn1 | > 11 µM (inactive) |
| O=C(/C=C/Nc1ccc([N+](=O)[O-])cc1)c1ccc(Br)cc1 | > 11 µM (inactive) |
| Nc1ccc(Nc2ccccc2)c(S(=O)(=O)O)c1 | > 11 µM (inactive) |
| COc1cccc(C(=O)NCC2CCN(c3ccc(S(=O)(=O)N4CCOCC4)cc3)CC2)c1 | > 11 µM (inactive) |
| O=C(O)CSc1cc(NS(=O)(=O)c2ccc(Br)cc2)c2ccccc2c1O | > 11 µM (inactive) |
| N#Cc1c(C#N)c(-c2ccccc2)n(-c2ccc(C(=O)O)cc2)c1N | > 11 µM (inactive) |
| O=C1c2ccccc2S(=O)(=O)c2cc(N3CCC(C(=O)N4CCCCC4)CC3)ccc21 | > 11 µM (inactive) |
| CC1=NN(C(N)=S)C(=O)C1N=Nc1ccc(S(N)(=O)=O)cc1 (stereo not drawn) | > 11 µM (inactive) |
| COc1ccc(/C=C/c2nc3sc4c(c3c(=O)o2)CCC4)cc1 | > 11 µM (inactive) |
| COc1ccc(P2(=O)Nc3ccccc3N2)cc1 | > 11 µM (inactive) |
| CC1(C)c2[nH]c3ccccc3c2C[C@@H]2C(=O)N(c3ccc(F)cc3F)C(=O)N21 | > 11 µM (inactive) |
| CCC(C)(C)NC(=O)C(c1cccn1C)N(C(=O)Cn1nnc2ccccc21)c1ccc(OC)cc1 (stereo not drawn) | > 11 µM (inactive) |
| Cc1cccn2c(=O)c3cc(S(=O)(=O)c4ccccc4)c(=N)n(CC4CCCO4)c3nc12 (stereo not drawn) | > 11 µM (inactive) |

| Compound | EC50 |
| --- | --- |
| Cn1c(O)c(/C=C2\C=c3ccccc3=NC2=O)c(=O)n(C)c1=O | > 11 µM (inactive) |
| N#C/C(=C\N1CCN(Cc2ccc3c(c2)OCO3)CC1)c1nc2ccccc2s1 | > 11 µM (inactive) |
| COC(=O)c1ccc(-n2c(C)cc(/C=N/Nc3nc(C)cc(=O)[nH]3)c2C)cc1 | > 11 µM (inactive) |
| COC(=O)C1CSc2[nH]c(=O)sc2C1c1ccccc1 (stereo not drawn) | > 11 µM (inactive) |
| Cc1[nH][nH]c(=O)c1C(c1ccc(-c2cccc(C(=O)O)c2)o1)c1c(C)[nH][nH]c1=O | > 11 µM (inactive) |
| CN1C(=O)C(=Cc2cn(CC(=O)N3CCCCC3)c3ccccc23)C(=O)N(C)C1=O | > 11 µM (inactive) |
| O=C(C1=C(O)C(=O)N(c2ncccn2)C1c1cccs1)c1ccco1 (stereo not drawn) | > 11 µM (inactive) |
| Cc1ccc2oc(=O)c(/C=C(\O)c3cccs3)nc2c1 | > 11 µM (inactive) |
| Clc1cc(-c2ccc(/C=N/n3cnnc3)o2)ccc1Br | > 11 µM (inactive) |
| CN(C)c1ccc(/C=C/c2nc3ccccc3s2)cc1 | > 11 µM (inactive) |
| Cc1nn2c(N3CCOCC3)c3c(nc2c1-c1ccccc1)CCCC3 | > 11 µM (inactive) |
| Cc1cccc2cc3c(N)c(C(=O)Nc4ccc(N5CCOCC5)cc4)sc3nc12 | > 11 µM (inactive) |
| CCOc1ccc(Br)cc1S(=O)(=O)NC(=O)c1ccccc1 | > 11 µM (inactive) |
| CCCCC1=CC2=CC(=O)C(C)(OC(=O)c3ccco3)C(=O)C2=CO1 (stereo not drawn) | > 11 µM (inactive) |
| O=C(N/N=C/c1cc(Cl)cc([N+](=O)[O-])c1O)c1ccccc1NS(=O)(=O)c1cccs1 | > 11 µM (inactive) |
| N#Cc1ccccc1CN1C(=O)S/C(=C/c2cccn2-c2cccc(C(=O)O)c2)C1=O | > 11 µM (inactive) |
| COCCn1c(=N)c(S(=O)(=O)c2ccc(Br)cc2)cc2c(=O)n3ccccc3nc21 | > 11 µM (inactive) |
| Nc1cccc2c1C(=O)N(Cc1nnc(-c3ccccc3Br)o1)C2=O | > 11 µM (inactive) |
| O=C(N/N=C/c1c(O)n(CCc2ccc(F)cc2)c(=O)[nH]c1=O)c1ccccc1 | > 11 µM (inactive) |
| COC(=O)c1ccc(-n2c(C)cc(/C=N/n3cnnc3)c2C)cc1 | > 11 µM (inactive) |
| Cc1nn(-c2ccccc2)c(N2CCCC2)c1/C=N/NC(=O)c1cc(-c2cccnc2)nc2ccccc12 | > 11 µM (inactive) |
| O=[N+]([O-])c1ccc(N=Nc2ncc[nH]2)cc1 | > 11 µM (inactive) |
| CCOC(=O)c1ccc(-n2c(C)ccc2C)cc1 | > 11 µM (inactive) |
| c1ccc2oc(CCc3nc4ccccc4o3)nc2c1 | > 11 µM (inactive) |
| COc1ccc(-n2nc(C(=O)c3cccs3)cc(-c3nc4ccccc4[nH]3)c2=N)cc1 | > 11 µM (inactive) |

| Compound | EC50 |
| --- | --- |
| CCN1C(=O)/C(=C\N(C)C)NC1=S | > 11 µM (inactive) |
| NC(=S)N=Nc1ccc(NN=C(N)N)cc1 | > 11 µM (inactive) |
| O=C(O)c1cccc(-n2cccc2/C=C2\NC(=O)N(Cc3ccc(F)cc3)C2=O)c1 | > 11 µM (inactive) |
| CCN(CC)c1ccc(/C=C/C(=O)c2ccc(Br)cc2)cc1 | > 11 µM (inactive) |
| COC(=O)c1cc(C(=O)OC)cc(-n2c(C)cc(C=O)c2C)c1 | > 11 µM (inactive) |
| Oc1ccc2ccccc2c1/C=N/Nc1nnc(-c2ncc[nH]2)c2ccccc12 | > 11 µM (inactive) |
| O=C(O)c1ccccc1N(c1ccccc1)c1ccccc1 | > 11 µM (inactive) |
| CC(=O)c1c(O)cc(O)cc1CC(=O)O | > 11 µM (inactive) |
| Cn1c(=O)c(-c2cc(=O)[nH][nH]2)c(O)c2ccccc21 | > 11 µM (inactive) |
| COc1ccc(N2C(=O)/C(=C/c3ccc(N(C)C)o3)C(=O)NC2=S)cc1 | > 11 µM (inactive) |
| O=C(O)C1Nc2ccc(Br)cc2C2C=CCC12 (stereo not drawn) | > 11 µM (inactive) |
| C=CCn1c(=O)/c(=C/c2ccc(C)o2)s/c1=C(/C#N)C(=O)c1ccccc1 | > 11 µM (inactive) |
| O=C(CC1Nc2ccccc2NC1=O)c1ccccc1 (stereo not drawn) | > 11 µM (inactive) |
| CC(=O)Nc1ccc(S(=O)(=O)NCc2nc(-c3cccc(C)c3)no2)cc1 | > 11 µM (inactive) |
| CCOC(=O)N1CCN(/C=C(\C#N)c2nc3ccccc3s2)CC1 | > 11 µM (inactive) |
| COc1ccc(/C=N/NC(=O)c2ccc(N(C)S(=O)(=O)c3ccccc3)cc2)cc1 | > 11 µM (inactive) |
| O=C(NNC(=O)c1ccccc1O)c1cccc(Br)c1 | > 11 µM (inactive) |
| O=C(CCN1C(=O)/C(=C\C=C\c2ccccc2)SC1=S)Nc1ccc(C(=O)O)cc1 | > 11 µM (inactive) |
| CCOC(=O)Cn1c2ccc(OC)cc2c2nc3ccccc3nc21 | > 11 µM (inactive) |
| CC(=O)Nc1ccc(N=Cc2nc(-c3ccc(C)cc3)oc2O)cc1 | > 11 µM (inactive) |
| CN1C(=O)NC(=O)/C(=C\c2ccc([N+](=O)[O-])o2)C1=O | > 11 µM (inactive) |
| COCC1CCN(C(=O)CC2C(=O)NCCN2Cc2cccc(Oc3ccccc3)c2)CC1 (stereo not drawn) | > 11 µM (inactive) |
| Fc1ccc(NCc2cccnc2)cc1F | > 11 µM (inactive) |
